The values below come from patent publication US8871767B2, “2-arylimidazo[1,2-B]pyridazine, 2-phenylimidazo[1,2-A]pyridine, and 2-phenylimidazo[1,2-A]pyrazine derivatives” (Hengrui (USA) Ltd., priority 2010, dated 2014).

pIC50: −log10 of the molar value. Where only a bound is given, the exact number is not on record here.

The first test relates to Hedgehog pathway activation on 10T1/2/Smo#3 cells (C3H10T1/2 cells transfected with human Smoothened receptor). Briefly: Hedgehog pathway activation on 10T1/2/Smo#3 cells measured by ALP activity. Type of test: cell-based. The note with it: Mus musculus, C3H 10T1/2, 10T1/2/Smo#3 cells, measured by ALP activity; read-out: ALP (IC50, inhibition of Hedgehog pathway activation). The procedure: Hedgehog conditioned media was obtained by transfecting 293H cells with the full length gene encoding human Sonic Hedgehog (hShh) inserted into the pCMV6 expression vector, which contains a neomycin selectable marker and expresses the protein of interest with a C-terminal FLAG affinity tag. After selection in G418 containing media, conditioned media from Hedgehog expressing clones were tested for the ability to activate the hedgehog-responsive GLi-luciferase reporter in the Shh Light II cell line obtained by license from John Hopkins University (Taipale J, et al. Effects of oncogenic mutations in Smoothened and Patched can be reversed by cyclopamine. Nature 406: 1005-1009, 2000).
C3H10T1/2 cells were transfected with a pCMV expression vector containing the full length gene sequence encoding the human Smoothened receptor. Pooled cells, designated 10T1/2/Smo#3, growing in G418 selection media responded to activation by 10-20% conditioned hShh media with an approximate 5-10 fold increase in alkaline phosphaste (ALP) activity over untransfected parent C3H10T1/2 cells as measured by the conversion of the free acid of 4-methylumbelliferyl phosphate to a fluorescent product.
A test compound library was screened against hShh and 500 nM SAG (a direct agonist of the Smoothened receptor) activated 10T1/2/Smo#3 cells and Shh Light II reporter cells for the ability to block Hedgehog pathway activation. Concurrently, cell viability was measured by utilizing Celltiter-Blue® (Promega, Madison Wis.) viability assay. Active compounds were defined as those that inhibited Hedgehog signaling by greater than 50% with no concurrent loss in cell viability.
Their inhibitory activity against Hedgehog pathway activation on 10T1/2/Smo#3 cells as measured by ALP activity and Shh Light II reporter cells as measured by luciferase activity is shown in Table 1 below. In Table 1, +++ stands for an IC50 value that is less than 0.3 μM, ++ between 0.3 and 3 μM, + between 3 and 30 μM.
Additional data for compounds of the invention is shown below in Table 2. Their inhibitory activities against Hedgehog pathway activation are shown as IC50 values in μM on 10T1/2/Smo#3 cells as measured by ALP activity, or on Shh Light II reporter cells as measured by luciferase activity (hShh activation).
The term pIC50 denotes the IC50 on a negative log10 scale, so that one unit is a factor of ten. Regarding `CC(C)(C)C(=O)Nc1cc(-c2cn3nc(Cl)ccc3n2)ccc1OC(F)(F)F` [Example 245, N-(5-(6-chloroimidazo[1,2-b]pyridazin-2-yl)-2-(trifluoromethoxy)phenyl)pivalamide], the negative logarithm of the IC50 (pIC50) was 5.53.

Take `CC(C)(C)C(=O)Nc1cc(-c2cn3nc(-c4ccccc4F)ccc3n2)ccc1C1CC1` [Example 271, N-(2-cyclopropyl-5-(6-(2-fluorophenyl)imidazo[1,2-b]pyridazin-2-yl)phenyl)pivalamide]: the pIC50 was 6.61.

Turning to `CC(=O)c1cccc(-c2ccc3nc(-c4ccc(C(F)(F)F)c(NC(=O)C(C)(C)C)c4)cn3n2)c1` [Example 254, N-(5-(6-(3-acetylphenyl)imidazo[1,2-b]pyridazin-2-yl)-2-(trifluoromethyl)phenyl)pivalamide], the negative-log IC50 (pIC50) was 6.44.

Consider `C[C@@H]1CN(c2ccc3nc(-c4ccc(C(F)(F)F)c(NC(=O)C(C)(C)C)c4)cn3n2)C[C@H](C)O1` [Example 250, N-(5-(6-(2,6-dimethylmorpholino)imidazo[1,2-b]pyridazin-2-yl)-2-(trifluoromethyl)phenyl)pivalamide], for which the pIC50 is 6.59.

On to `CC(C)(C)C(=O)Nc1cc(-c2cn3nc(N4CCOCC4)ccc3n2)ccc1OC(F)(F)F` [Example 267, N-(5-(6-morpholinoimidazo[1,2-b]pyridazin-2-yl)-2-(trifluoromethoxy)phenyl)pivalamide], for which the pIC50 is 5.68.

Regarding `CC(C)(C)C(=O)Nc1cc(-c2cn3nc(Cl)ccc3n2)ccc1C1CC1` [Example 270, N-(5-(6-chloroimidazo[1,2-b]pyridazin-2-yl)-2-cyclopropylphenyl)pivalamide], the pIC50 was 5.03.

In the case of `C[C@@H]1CN(c2ccc3nc(-c4ccc(OC(F)(F)F)c(NC(=O)C(C)(C)C)c4)cn3n2)C[C@H](C)O1` [Example 463, N-(5-(6-((2R,6S)-2,6-dimethylmorpholino)imidazo[1,2-b]pyridazin-2-yl)-2-(trifluoromethoxy)phenyl)pivalamide], the pIC50 is 5.81.

As for `CC(C)(C)C(=O)Nc1cc(-c2cn3nc(N4CCN(S(C)(=O)=O)CC4)ccc3n2)ccc1OC(F)(F)F` [Example 268, N-(5-(6-(4-(methylsulfonyl)piperazin-1-yl)imidazo[1,2-b]pyridazin-2-yl)-2-(trifluoromethoxy)phenyl)pivalamide], the pIC50 was 5.71.

As for `CCOc1ccc2nc(-c3ccc(OC(F)(F)F)c(NC(=O)C(C)(C)C)c3)cn2n1` [Example 246, N-(5-(6-ethoxyimidazo[1,2-b]pyridazin-2-yl)-2-(trifluoromethoxy)phenyl)pivalamide], the pIC50 is 5.88.

`CC(C)(C)C(=O)Nc1cc(-c2cn3nc(N4CCC(O)CC4)ccc3n2)ccc1OC(F)(F)F` [Example 269, N-(5-(6-(4-hydroxypiperidin-1-yl)imidazo[1,2-b]pyridazin-2-yl)-2-(trifluoromethoxy)phenyl)pivalamide]: the negative logarithm of the IC50 (pIC50) was 6.00.

With `CCCCOc1ccc2nc(-c3ccc(OC(F)(F)F)c(NC(=O)C(C)(C)C)c3)cn2n1` [Example 249, N-(5-(6-butoxyimidazo[1,2-b]pyridazin-2-yl)-2-(trifluoromethoxy)phenyl)pivalamide], the negative-log IC50 (pIC50) was 6.05.

On to `CCOc1ccc2nc(-c3ccc(C4CC4)c(NC(=O)C(C)(C)C)c3)cn2n1` [Example 272, N-(2-cyclopropyl-5-(6-ethoxyimidazo[1,2-b]pyridazin-2-yl)phenyl)pivalamide], for which the pIC50 was 5.90.

Consider `CC1CN(c2ccc3nc(-c4ccc(OC(F)(F)F)c(NC(=O)C(C)(C)C)c4)cn3n2)CC(C)O1` (stereo not shown) [Example 266, N-(5-(6-(2,6-dimethylmorpholino)imidazo[1,2-b]pyridazin-2-yl)-2-(trifluoromethoxy)phenyl)pivalamide], for which the pIC50 was 5.81.

With `CCOC(=O)c1ccccc1-c1ccc2nc(-c3ccc(C(F)(F)F)c(NC(=O)C(C)(C)C)c3)cn2n1` [Example 257, ethyl 2-(2-(3-pivalamido-4-(trifluoromethyl)phenyl)imidazo[1,2-b]pyridazin-6-yl)benzoate], the pIC50 was 6.30.

Consider `CC(C)Oc1ccccc1-c1ccc2nc(-c3ccc(C(F)(F)F)c(NC(=O)C(C)(C)C)c3)cn2n1` [Example 251, N-(5-(6-(2-isopropoxyphenyl)imidazo[1,2-b]pyridazin-2-yl)-2-(trifluoromethyl)phenyl)pivalamide], for which the pIC50 was 6.29.

The subject of another test is Hedgehog pathway activation (GLi-luciferase reporter) in Shh Light II reporter cells. Kind of test: Hedgehog pathway activation on Shh Light II reporter cells measured by luciferase activity. Type of test: cell-based. The note with it: Mus musculus, Shh Light II, hShh activation, read-out: Shh (IC50, inhibition of Hedgehog pathway activation). The essentials:
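Shh Light II reporter cells carrying a hedgehog-responsive GLi-luciferase reporter were stimulated either with 500 nM SAG, a direct Smoothened agonist, or with conditioned media containing human Sonic Hedgehog (hShh). Test compounds were evaluated for blocking this pathway activation, quantified by luciferase activity. Cell viability was monitored in parallel with the Celltiter-Blue® assay.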
Take `Cc1ccc(-c2cn3nc(N4CCC(NCCCCCC(=O)NO)C4)ccc3n2)cc1NC(=O)C(C)(C)C` (stereo not shown) [Example 418, N-hydroxy-6-(1-(2-(4-methyl-3-pivalamidophenyl)imidazo[1,2-b]pyridazin-6-yl)pyrrolidin-3-ylamino)hexanamide]: the pIC50 is 5.86.

Regarding `CC(C)(C)OC(=O)NC1CCN(c2ccc3nc(-c4ccc(C(F)(F)F)c(NC(=O)C(C)(C)C)c4)cn3n2)CC1` [Example 331, tert-butyl 1-(2-(3-pivalamido-4-(trifluoromethyl)phenyl)imidazo[1,2-b]pyridazin-6-yl)piperidin-4-ylcarbamate], the pIC50 was 6.32.

For the molecule `CCOC(=O)CCCCCNC1CCN(c2ccc3nc(-c4ccc(C)c(NC(=O)C(C)(C)C)c4)cn3n2)C1` (stereo not shown) [Example 414, ethyl 6-(1-(2-(4-methyl-3-pivalamidophenyl)imidazo[1,2-b]pyridazin-6-yl)pyrrolidin-3-ylamino)hexanoate], the pIC50 was 6.02.

Turning to `Cc1ccc(-c2cn3nc(-c4ccc(C(N)=NO)cc4C)ccc3n2)cc1NC(=O)C(C)(C)C` [compound 576], the pIC50 is 6.81.

Regarding `Cc1ccc(-c2cn3nc(Cl)ccc3n2)cc1NC(=O)C1(C)CC1` [compound 517], the negative-log IC50 (pIC50) is under 5.00.

As for `Cc1ccc(-c2cn3nc(NCc4cccc(C=CC(=O)NO)c4)ccc3n2)cc1NC(=O)C(C)(C)C` [compound 614], the pIC50 is 5.36.

Consider `Cc1ccc(-c2cn3nc(-c4ccc(C(N)=O)nc4)ccc3n2)cc1NC(=O)C(C)(C)C` [compound 537], for which the pIC50 was 6.13.

For the molecule `Cc1ccc(-c2cn3nc(-c4cccnc4C(F)(F)F)ccc3n2)cc1-c1c(C)noc1C` [compound 507], the pIC50 is 5.60.

For `COC(=O)c1ccc(-c2ccc3nc(-c4ccc(C)c(NC(=O)C(C)(C)C)c4)cn3n2)cc1` [compound 582], the pIC50 is 5.94.

In the case of `Cc1ccc(-c2cn3nc(-c4ccccc4O)ccc3n2)cc1NC(=O)C(C)(C)C` [Example 276, N-(5-(6-(2-hydroxyphenyl)imidazo[1,2-b]pyridazin-2-yl)-2-methylphenyl)pivalamide], the pIC50 was 5.71.

For `Cc1ccc(-c2cn3nc(-c4cccc(C(=O)NO)c4)ccc3n2)cc1NC(=O)C(C)(C)C` [compound 589], the pIC50 was 6.30.

`Cc1ccc(-c2cn3nc(-c4cccnc4C#N)ccc3n2)cc1NC(=O)C(C)(C)C` [compound 581, N-(5-(6-(2-cyanopyridin-3-yl)imidazo[1,2-b]pyridazin-2-yl)-2-methylphenyl)pivalamide]: the pIC50 is 7.09.

Regarding `COC(=O)c1csc(-c2ccc3nc(-c4ccc(C)c(NC(=O)C(C)(C)C)c4)cn3n2)n1` [Example 446, methyl 2-(2-(4-methyl-3-pivalamidophenyl)imidazo[1,2-b]pyridazin-6-yl)thiazole-4-carboxylate], the pIC50 is 5.86.

Turning to `Cc1ccc(-c2cn3nc(-c4ccc(O)cc4)ccc3n2)cc1NC(=O)C(C)(C)C` [compound 519], the pIC50 was 5.77.

Consider `Cc1ccc(-c2cn3nc(NC(=O)c4ccccn4)ccc3n2)cc1NC(=O)C(C)(C)C` [compound 611], for which the pIC50 was 7.31.

For the molecule `Cc1ccc(-c2cn3nc(-c4ccc(C(N)=O)cc4)ccc3n2)cc1NC(=O)C(C)(C)C` [compound 526], the pIC50 is 6.11.

As to `Cc1ccc(-c2cn3nc(-c4c[nH]nc4C)ccc3n2)cc1NC(=O)C(C)(C)C` [compound 500], the pIC50 was 6.35.

On to `Cc1ccc(-c2cn3nc(N4CCC(NCCCCCCC(=O)NO)C4)ccc3n2)cc1NC(=O)C(C)(C)C` (stereo not shown) [Example 419, N-hydroxy-7-(1-(2-(4-methyl-3-pivalamidophenyl)imidazo[1,2-b]pyridazin-6-yl)pyrrolidin-3-ylamino)heptanamide], for which the pIC50 was 6.01.

Turning to `CC(=O)c1cccc(-c2ccc3nc(-c4ccc(C)c(NC(=O)C(C)(C)C)c4)cn3n2)c1` [compound 527], the pIC50 is 5.98.
